# From patent US20070249717A1, “PREVENTIVE/THERAPEUTIC AGENT FOR VISCERAL PAIN” (AJINOMOTO CO. INC, priority 2004, published 2007)
# Legend:
# 5-HT4 receptor = conditions: cited from earlier work
# GABAB receptor = molecular target: T1, GABAB receptor (Cavia porcellus, UniProt A0A286X9P6); test: Action on GABAB receptor: electrically stimulated contraction of isolated guinea pig ileum; assay type: cell-based; conditions: for contraction (%): ileum contraction by electric stimulation calculated as 100%
# T1 construct: The ileum was isolated from a guinea pig; from tissue; host or cells: isolated guinea pig ileum
# T1 sequence (A0A286X9P6 30-844): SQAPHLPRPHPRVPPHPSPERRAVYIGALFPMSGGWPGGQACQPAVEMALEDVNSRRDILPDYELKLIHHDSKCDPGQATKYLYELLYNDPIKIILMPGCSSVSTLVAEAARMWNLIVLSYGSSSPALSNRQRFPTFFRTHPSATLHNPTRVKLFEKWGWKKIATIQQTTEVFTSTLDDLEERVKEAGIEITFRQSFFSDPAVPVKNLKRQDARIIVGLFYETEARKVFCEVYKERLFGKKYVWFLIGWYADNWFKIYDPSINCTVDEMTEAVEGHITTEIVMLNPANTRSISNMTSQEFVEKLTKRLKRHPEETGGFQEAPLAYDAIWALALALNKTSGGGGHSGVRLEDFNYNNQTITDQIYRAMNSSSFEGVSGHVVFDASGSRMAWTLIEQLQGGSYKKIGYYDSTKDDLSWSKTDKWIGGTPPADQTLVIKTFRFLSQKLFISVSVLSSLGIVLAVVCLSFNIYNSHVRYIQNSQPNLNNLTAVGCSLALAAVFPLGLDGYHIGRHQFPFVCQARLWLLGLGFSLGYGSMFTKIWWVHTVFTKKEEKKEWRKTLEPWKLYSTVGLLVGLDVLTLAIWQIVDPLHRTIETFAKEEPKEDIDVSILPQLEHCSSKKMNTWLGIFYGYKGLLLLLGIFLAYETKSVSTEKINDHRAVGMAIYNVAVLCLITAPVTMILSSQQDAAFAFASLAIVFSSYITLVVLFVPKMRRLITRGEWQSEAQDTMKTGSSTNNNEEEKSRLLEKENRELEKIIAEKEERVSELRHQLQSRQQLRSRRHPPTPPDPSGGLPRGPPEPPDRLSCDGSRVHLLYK
# T1 sequence (H0V741 1-820 partner): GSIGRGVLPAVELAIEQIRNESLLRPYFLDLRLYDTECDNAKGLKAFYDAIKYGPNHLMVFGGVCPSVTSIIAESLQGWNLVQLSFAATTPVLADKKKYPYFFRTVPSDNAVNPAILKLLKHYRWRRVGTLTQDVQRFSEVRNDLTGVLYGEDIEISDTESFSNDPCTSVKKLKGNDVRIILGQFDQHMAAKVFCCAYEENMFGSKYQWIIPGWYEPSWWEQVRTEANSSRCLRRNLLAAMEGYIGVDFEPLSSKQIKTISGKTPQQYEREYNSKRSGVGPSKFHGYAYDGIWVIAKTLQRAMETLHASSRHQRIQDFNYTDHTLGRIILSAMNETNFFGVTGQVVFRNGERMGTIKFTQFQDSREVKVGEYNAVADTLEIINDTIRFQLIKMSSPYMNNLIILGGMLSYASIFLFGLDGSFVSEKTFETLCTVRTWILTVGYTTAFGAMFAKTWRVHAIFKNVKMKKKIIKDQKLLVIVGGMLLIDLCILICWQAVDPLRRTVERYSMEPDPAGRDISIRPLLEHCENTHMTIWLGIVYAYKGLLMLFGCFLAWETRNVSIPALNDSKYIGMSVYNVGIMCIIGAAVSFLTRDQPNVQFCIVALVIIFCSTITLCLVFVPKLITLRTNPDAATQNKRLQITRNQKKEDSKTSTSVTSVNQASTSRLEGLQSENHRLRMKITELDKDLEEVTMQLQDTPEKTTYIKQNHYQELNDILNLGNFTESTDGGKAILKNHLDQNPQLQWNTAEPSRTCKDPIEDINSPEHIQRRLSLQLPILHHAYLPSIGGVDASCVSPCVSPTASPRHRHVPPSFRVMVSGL
# Experimental: A test for GABAB receptor was performed according to the method reported by Kerr et al. (Kerr, D. I. B. Ong, J., Johnston, G. A. R. Abbenante, J. and Prager, R. H. (1988) 2-hydroxy-saclofen: an improved antagonist at central and peripheral GABAB receptors. Neurosci. Lett. 92: 92-96). The ileum was isolated from a guinea pig. […]
# In Table 1, the ileum contraction by electric stimulation was calculated as 100%.
# NK2 receptor = molecular target: T2, NK2 receptor (Oryctolagus cuniculus, UniProt P79218); test: Action on NK2 receptor: [βAla^8]NKA(4-10)-induced contraction of isolated rabbit pulmonary artery; assay type: cell-based
# T2 construct: The pulmonary artery was isolated from a rabbit; from tissue; host or cells: isolated rabbit pulmonary artery
# T2 sequence (P79218 1-384): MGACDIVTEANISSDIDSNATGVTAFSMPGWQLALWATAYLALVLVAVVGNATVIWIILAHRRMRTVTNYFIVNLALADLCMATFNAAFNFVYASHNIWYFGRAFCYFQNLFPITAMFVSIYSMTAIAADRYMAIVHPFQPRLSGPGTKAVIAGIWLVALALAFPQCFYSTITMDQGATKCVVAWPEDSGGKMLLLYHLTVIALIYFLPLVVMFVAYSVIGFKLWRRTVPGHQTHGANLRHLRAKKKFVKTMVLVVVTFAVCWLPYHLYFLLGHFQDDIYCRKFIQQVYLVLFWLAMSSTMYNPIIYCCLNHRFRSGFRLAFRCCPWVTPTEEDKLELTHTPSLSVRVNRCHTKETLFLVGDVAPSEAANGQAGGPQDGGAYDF
# Experimental: A test for NK2 receptor was performed according to the method reported by Emonds et al. (Emonds-Alt X., Advenier, C., Croco, T. Manara, L., Neliat, G., Poncelet, M., Proietto, V., Santucci, V., Soubrie, P., Van Broeck, D., Vilain, P., Le Fur, G. and Breliere, J. C. (1993) SR 48968, a neurokinin A (NK2) receptor antagonist Regul. Peptides. 46: 31-36). The pulmonary artery was isolated from a rabbit. The isolated tissue was hung in a solution of buffer (NaCl 118.0, KCl 4.7, MgSO4 1-2, CaCl2 2.5, KH2PO41.2, NaHCO3 25, glucose 11.0 (pH 7 4) (unit:mM) 37° C.) aerated with oxygen (95% oxygen, 5% carbon dioxide), added with benexytramine (1 μM, a receptor antagonist), propranolol (1 μM, β receptor antagonist), pyrilamine (1 μM, histamine H1 receptor antagonist), atropine (1 μM, muscarinic receptor antagonist) and metiserglde (1 μM, 5-HT2 receptor antagonist). After 60 min or more, lysine (0.3, 3, 30 mM) was added to the buffer, and the contraction of the pulmonary artery due to [βAla^8]NKA(4-10) was measured.
# In Table 2, the pulmonary artery contraction by [βAla^8]NKA(4-10) was calculated as 100%.
# wrap stress rat model = conditions: in vivo; cited from earlier work
# [1] = tested on: stress-induced colon distension rat model (visceral pain); test: Visceral perceptual threshold in stress-induced colon distension visceral pain rat model; conditions: for visceral perceptual threshold that decreased due to the stress: stressed SD rat, from 10 min after administration, Dunnett's test
"contraction (%) (NK2 receptor; 3 × 10^−4 mM, agonist alone, reference set as 100%)",Compound,action at 5-HT4 receptor (5-HT4 receptor),contraction (%) (GABAB receptor; 0.3 mM),contraction (%) (GABAB receptor; 3.0 mM),contraction (%) (GABAB receptor; 30 mM),"ileum contraction via GABAB receptor (GABAB receptor; 0.3-30, isolated guinea pig ileum)","contraction (%) (NK2 receptor; 0.3 mM, contraction by [βAla^8]NKA(4-10) calculated as 100%)","contraction (%) (NK2 receptor; 3.0 mM, contraction by [βAla^8]NKA(4-10) calculated as 100%)","contraction (%) (NK2 receptor; 30 mM, contraction by [βAla^8]NKA(4-10) calculated as 100%)","pulmonary artery contraction via NK2 receptor (NK2 receptor; 0.3-30 mM, isolated rabbit pulmonary artery)",effect on wrap stress rat model (wrap stress rat model),time for which significant increase of visceral perceptual threshold was observed ([1]; 1 g/kg or 3 g/kg orally),visceral perceptual threshold that decreased due to the stress ([1]; 1 g/kg orally),visceral perceptual threshold that decreased due to the stress ([1]; 3 g/kg orally)
–,NCCCC[C@H](N)C(=O)O [lysine],5-HT4 receptor antagonist,0%,−20%,−77%,"suppressed the ileum contraction via GABAB receptor, in a dose-dependent manner",85%,41%,19%,"suppressed the pulmonary artery contraction via NK2 receptor, in a dose-dependent manner",treatment effect,about 2 hr,significantly increased,significantly increased
100%,[βAla^8]NKA(4-10) [reference compound],–,–,–,–,–,–,–,–,–,–,–,–,–
